# Source: the OPERA property sets (Mansouri et al. 2018)
# Conditions: not given
SMILES,boiling point [°C],log10 Henry constant (atm·m³/mol),log10 Koa,log10 vapour pressure (mmHg),melting point [°C],ready biodegradability,log10 Koc (L/kg)
COC(C)=O,56.8,-3.94,2.31,2.33,-98,readily biodegradable,–
C[C@]12CCC(=O)C=C1C=C[C@@H]1[C@@H]2CC[C@@]2(C)[C@H]1CC[C@@]21CCC(=O)O1,–,–,–,–,150,–,–
Cc1cc(OC(=O)N(C)C)n(C(C)C)n1,–,–,–,-3,–,–,–
CCN(CC)c1cccc(C)c1,232,–,–,–,–,–,–
CNCc1ccccc1,180,–,–,–,–,–,–
N#Cc1cc([N+](=O)[O-])ccc1N,–,–,–,–,–,not readily biodegradable,–
Clc1cccc(Cl)c1-c1c(Cl)cccc1Cl,–,-3.7,–,–,–,–,4.9
O=Cc1cc(Cl)ccc1O,–,–,–,–,100,–,–
C=COC,5.5,–,–,3.12,-122,–,–
CC(=O)c1c(C)c([N+](=O)[O-])c(C(C)(C)C)c([N+](=O)[O-])c1C,–,–,–,–,136,–,–
N#C/C=C/C#N,186,–,–,–,96.8,–,–
C1CCCCNCCC1,–,–,–,–,-19,–,–
COc1cc(C=O)ccc1O[C@@H]1O[C@H](CO)[C@@H](O)[C@H](O)[C@H]1O,–,–,–,–,189,–,–
CN(C)C(=O)Nc1cc(C(C)(C)C)on1,–,–,–,-6.42,120,readily biodegradable,2.47
CC(C)(C)C1CCC(=O)CC1,–,–,–,–,48.5,–,–
CCC1=CCCCC1,137,–,–,–,-110,–,–
Nc1nc2ccccc2[nH]1,–,–,–,–,230,–,–
COC=Cc1ccccc1,212,–,–,–,–,–,–
Cc1ccc(C)c(OCCCC(C)(C)C(=O)O)c1,–,–,–,–,62,–,–

SMILES,boiling point [°C],log10 Henry constant (atm·m³/mol),log10 Koa,log10 vapour pressure (mmHg),melting point [°C],ready biodegradability,log10 Koc (L/kg)
COC(C)(C)C,55.2,-3.23,2.58,2.4,-109,not readily biodegradable,–
CC[C@H](Br)C(=O)O,–,–,–,–,-4,–,–
c1ccc2n[nH]nc2c1,–,–,–,–,–,not readily biodegradable,–
Cc1ccccc1-c1ccccc1C,256,–,–,–,19.5,–,–
CCCCc1cc2c(=O)c(C(=O)OC)c[nH]c2cc1OCc1ccccc1,–,–,–,–,288,–,–
CCc1ccccc1OC,187,–,–,–,–,–,–
CNC(=O)/C=C(\C)OP(=O)(OC)OC,–,–,–,-5.66,55,–,0
CCCc1cccc2ccccc12,274,–,–,–,-8.6,–,–
O=C/C(Cl)=C(/Cl)C(=O)O,–,–,–,–,127,–,–
Cc1cc(Cl)ccc1N=CN(C)C,–,–,–,-3.03,35,–,2.91
Nc1ccc(O)c([N+](=O)[O-])c1,–,–,–,–,126,–,–
CCO[Si](CCC#N)(OCC)OCC,224,–,–,–,–,–,–
COc1ccccc1N=Nc1ccccc1,–,–,–,–,41,–,–
Cn1c(=O)cc(O)c2ccccc21,–,–,–,–,270,–,–
CC(CC(C(N)=O)(c1ccccc1)c1ccccc1)N(C)C (stereo unspecified),–,–,–,–,137,–,–
CCCC(=O)C(=O)OCC,182,–,–,–,–,–,–
CC1=CCC(C(C)C)=CC1,183,-1.59,–,0.0362,-10,readily biodegradable,–
C#CCOc1cc(-n2nc(C(C)(C)C)oc2=O)c(Cl)cc1Cl,–,–,–,-7.73,131,–,–
CCCCC[C@H](O)/C=C/[C@@H]1[C@@H](C/C=C\CCCC(=O)O)[C@@H](O)C[C@H]1O,–,–,–,–,30,–,–

SMILES,boiling point [°C],log10 Henry constant (atm·m³/mol),log10 Koa,log10 vapour pressure (mmHg),melting point [°C],ready biodegradability,log10 Koc (L/kg)
O=C(CF)c1ccccc1,–,–,–,–,29,–,–
Cc1cc(C)c(S(=O)(=O)Cl)c(C)c1,–,–,–,–,56,–,–
CCN(CC)CC(=O)OCC(=O)[C@@]1(O)CC[C@H]2[C@@H]3CCC4=CC(=O)C=C[C@]4(C)[C@H]3[C@@H](O)C[C@@]21C,–,–,–,–,176,–,–
CCCCCCc1ccc(N)cc1,282,–,–,–,–,–,–
O=C(Cl)c1ccc(Cl)cc1Cl,–,–,–,–,16.5,–,–
N#CC(CCc1ccc(Cl)cc1)(Cn1cncn1)c1ccccc1 (stereo unspecified),–,–,–,-7.43,125,–,–
N=C(N)N(c1ccccc1)c1ccccc1,–,–,–,–,–,not readily biodegradable,–
Clc1cccc(-c2cccc(Cl)c2Cl)c1,–,-3.8,–,–,–,–,–
C[N+](C)(C)CCOC(=O)NCCCCCCNC(=O)OCC[N+](C)(C)C.[Br-].[Br-],–,–,–,–,175,–,–
CC(=O)C[C@H](C)O,177,–,–,–,–,–,–
Clc1ccc(-c2nc3c4ccccc4ccn3n2)cc1,–,–,–,–,239,–,–
Clc1ccc(Oc2cccc(Cl)c2Cl)cc1,–,–,–,-3.94,–,–,–
COc1cc(CCO)ccc1O,–,–,–,–,41,–,–
CON(C(=O)c1cc(C)oc1C)C1CCCCC1,–,–,–,–,33,–,–
Clc1cc(-c2ccccc2)c(Cl)c(Cl)c1Cl,–,–,8.74,-4.43,–,–,–
CCCCCCCCCCCCCCCCOC(C)=O,–,–,–,–,-18.5,–,–
CCC(C)OC(=O)CCC(=O)OC(C)CC (stereo unspecified),256,–,–,–,–,–,–
CCc1cc(C)nc(C)c1,188,–,–,–,97,–,–

# Same assay, conditions: fish
SMILES,log10 BCF,log10 biotransformation half-life (days)
O=C(O)c1c(Cl)ccc(Cl)c1Cl,0.54,–
c1ccc2c(c1)oc1ccccc12,3.18,1.35
Clc1cc2c(cc1Cl)Oc1c(cc(Cl)c(Cl)c1Cl)O2,4.26,1.56
Clc1ccc(Cl)c2ccccc12,3.75,2.37
Clc1cccc(Cl)c1-c1c(Cl)cccc1Cl,3.85,–
COC(C)(C)C,0.18,-0.88
Clc1cc(Cl)c(Oc2cc(Cl)c(Cl)cc2Cl)c(Cl)c1,–,2.01
ClC1=C(Cl)C2(Cl)C3CC(Cl)(Cl)CC3C1(Cl)C2(Cl)Cl (stereo unspecified),4.3,2.23
